Source: ChEMBL document CHEMBL5131467, “Multivalent peptide dendrimers inhibit the fusion of viral-cellular membranes and the cellular NF-κB signaling pathway” (Eur J Med Chem, 2022)
The source made the active and inactive calls. No cut-off for these calls is given here. Where a SMILES comes first, the peptide text is derived from it. Bridges are numbered along the chain shown (N, C = ends). Roman numbers before positions name the chains, in order. Side-chain parts run from the residue outwards. The star is where a group is joined. Acetyl(2-naphthyl) = O=C(Cc1ccc2ccccc2c1)*

Tests used:
Influenza A virus [1] = experiment: Antiviral activity against Influenza A virus (A/Puerto Rico/8/1934(H1N1)) infected in MDCK cells assessed as reduction in virus induced cytopathic effect pre-treated with virus followed by cell infection for 1 hr by MTT assay; assay type: functional, organism-based
[2] = Cytotoxicity against MDCK cells incubated for 1 hr by MTT assay; assay type: toxicity, cell-based, Canis lupus familiaris; conditions: dog
Influenza A virus [3] = experiment: Antiviral activity against Influenza A virus (A/Puerto Rico/8/1934(H1N1)) infected in MDCK cells assessed as reduction in virus induced cytopathic effect pretreated with compound incubated for 1 hrs by MTT assay; assay type: functional, organism-based
[4] = Selectivity index, ratio of CC50 for MDCK cells to IC50 antiviral activity against Influenza A virus (A/Puerto Rico/8/1934(H1N1)) infected in MDCK cells assessed as reduction in virus induced cytopathic effect pre-treated with virus; assay type: toxicity, cell-based; conditions: dog, read-out: Selectivity Index
Influenza A virus [5] = experiment: Antiviral activity against Influenza A virus (A/Puerto Rico/8/1934(H1N1)) infected in MDCK cells assessed as reduction in virus induced cytopathic effect after infection incubated for 1 hr by MTT assay; assay type: functional, organism-based
Influenza A virus [6] = experiment: Antiviral activity against Influenza A virus (A/Puerto Rico/8/1934(H1N1)) infected in MDCK cells assessed as reduction in virus induced cytopathic effect during infection incubated for 1 hr by MTT assay; assay type: functional, organism-based
[7] = Cytotoxicity against MDCK cells by CCK-8 assay; assay type: toxicity, cell-based, Canis lupus familiaris; conditions: dog
RAW264.7 [8] = experiment: Anti-inflammatory activity against mouse RAW264.7 cells assessed as reduction in LPS induced TNF alpha level at 1 ug/ml by ELISA method; assay type: functional; conditions: dose 1 µg/ml
Influenza A virus [9] = experiment: Antiviral activity against Influenza A virus A/Aichi/2/68(H3N2) infected in MDCK cells incubated for 1 hr by MTT assay; assay type: functional, organism-based
RAW264.7 [10] = experiment: Anti-inflammatory activity against mouse RAW264.7 cells assessed as reduction in Influenza A virus (A/Puerto Rico/8/1934(H1N1)) induced TNF alpha level at 5 ug/ml by ELISA method; assay type: functional; conditions: dose 5 µg/ml
RAW264.7 [11] = experiment: Anti-inflammatory activity against mouse RAW264.7 cells assessed as reduction in Influenza A virus (A/Puerto Rico/8/1934(H1N1)) induced TNF alpha level at 1 ug/ml by ELISA method; assay type: functional; conditions: dose 1 µg/ml
Influenza A virus [12] = experiment: Antiviral activity against Influenza A virus A/FM/1/47 infected in MDCK cells incubated for 1 hr by MTT assay; assay type: functional, organism-based; conditions: A/FM/1/47, MDCK
RAW264.7 [13] = experiment: Anti-inflammatory activity against mouse RAW264.7 cells assessed as reduction in LPS induced TNF alpha level at 5 ug/ml by ELISA method; assay type: functional; conditions: dose 5 µg/ml
Influenza B virus = experiment: Antiviral activity against Influenza B virus 699[…] clinical isolate infected in MDCK cells incubated for 1 hr by MTT assay; assay type: functional, organism-based
Influenza A virus [14] = experiment: Antiviral activity against Influenza A virus 699(H3) clinical isolate infected in MDCK cells incubated for 1 hr by MTT assay; assay type: functional, organism-based
RAW264.7 [15] = experiment: Anti-inflammatory activity against LPS induced mouse RAW264.7 cells assessed as suppression of NF kappa B expression level at 5 ug/ml by luciferase reporter assay; assay type: functional, cell-based; conditions: dose 5.0 µg/ml
RAW264.7 [16] = experiment: Anti-inflammatory activity against mouse RAW264.7 cells assessed as reduction in influenza A virus induced IL-1 beta level at 5 ug/ml by qRT- PCR; assay type: functional, cell-based; conditions: dose 5.0 µg/ml
Mus musculus [17] = experiment: Antiviral activity against Kunming mouse infected with Influenza A virus (A/Puerto Rico/8/1934(H1N1)) assessed as survival rate at 5 mg/kg, ip administered once a day for 5 days relative to control; assay type: functional; conditions: 120 h, time 5 day
RAW264.7 [18] = experiment: Anti-inflammatory activity against Influenza A virus (A/Puerto Rico/8/1934(H1N1)) induced mouse RAW264.7 cells assessed as suppression of NF kappa B expression level 5 ug/ml by luciferase reporter assay; assay type: functional, cell-based; conditions: dose 5.0 µg/ml
RAW264.7 [19] = experiment: Anti-inflammatory activity against mouse RAW264.7 cells assessed as reduction in LPS induced IL-6 level at 5 ug/ml by qRT-PCR analysis; assay type: functional, cell-based; conditions: dose 5.0 µg/ml
Mus musculus [20] = experiment: Antiviral activity against Kunming mouse infected with Influenza A virus (A/Puerto Rico/8/1934(H1N1)) assessed as increase in body weight at 5 mg/kg, ip measured after 15 days (reference value: 178.7%); assay type: functional; conditions: time 15 day
RAW264.7 [21] = experiment: Anti-inflammatory activity against mouse RAW264.7 cells assessed as reduction in influenza A virus induced IL-6 level at 5 ug/ml by qRT- PCR; assay type: functional, cell-based; conditions: dose 5.0 µg/ml
Influenza A virus [22] = experiment: Antiviral activity against Influenza A virus (A/Puerto Rico/8/1934(H1N1)) infected in MDCK cells assessed as reduction in viral nucleoprotein expression level at 2.5 ug/ml during infection measured after 24 hrs post infection by indirect immunofluorescence assay; assay type: functional, organism-based; conditions: dose 2.5 µg/ml
RAW264.7 [23] = experiment: Anti-inflammatory activity against mouse RAW264.7 cells assessed as reduction in LPS induced TNF alpha level at 5 ug/ml by qRT-PCR analysis; assay type: functional, cell-based; conditions: dose 5.0 µg/ml
Influenza A virus [24] = experiment: Antiviral activity against Influenza A virus (A/Puerto Rico/8/1934(H1N1)) infected in MDCK cells assessed as reduction in viral nucleoprotein expression level at 2.5 ug/ml pretreated with compound measured after 24 hrs post infection by indirect immunofluorescence assay; assay type: functional, organism-based; conditions: dose 2.5 µg/ml
RAW264.7 [25] = experiment: Anti-inflammatory activity against mouse RAW264.7 cells assessed as reduction in LPS induced IL-1 beta level at 5 ug/ml by qRT-PCR analysis; assay type: functional, cell-based; conditions: dose 5.0 µg/ml
RAW264.7 [26] = experiment: Anti-inflammatory activity against mouse RAW264.7 cells assessed as reduction in influenza A virus induced TNF alpha level at 5 ug/ml by qRT- PCR; assay type: functional, cell-based; conditions: dose 5.0 µg/ml
Influenza A virus [27] = experiment: Antiviral activity against Influenza A virus (A/Puerto Rico/8/1934(H1N1)) infected in MDCK cells assessed as reduction in M1 mRNA level at 1 ug/ml measured after 24 hrs post infection by qRT-PCR analysis; assay type: functional, organism-based; conditions: dose 1.0 µg/ml
Hemagglutinin = Hemagglutinin (Influenza A virus, UniProt B4URE7); experiment: Binding affinity to Influenza A Puerto Rico/8/1934/H1N1 hemagglutin assessed as dissociation constant by surface plasmon resonance assay
Sequence of Hemagglutinin (B4URE7 whole entry): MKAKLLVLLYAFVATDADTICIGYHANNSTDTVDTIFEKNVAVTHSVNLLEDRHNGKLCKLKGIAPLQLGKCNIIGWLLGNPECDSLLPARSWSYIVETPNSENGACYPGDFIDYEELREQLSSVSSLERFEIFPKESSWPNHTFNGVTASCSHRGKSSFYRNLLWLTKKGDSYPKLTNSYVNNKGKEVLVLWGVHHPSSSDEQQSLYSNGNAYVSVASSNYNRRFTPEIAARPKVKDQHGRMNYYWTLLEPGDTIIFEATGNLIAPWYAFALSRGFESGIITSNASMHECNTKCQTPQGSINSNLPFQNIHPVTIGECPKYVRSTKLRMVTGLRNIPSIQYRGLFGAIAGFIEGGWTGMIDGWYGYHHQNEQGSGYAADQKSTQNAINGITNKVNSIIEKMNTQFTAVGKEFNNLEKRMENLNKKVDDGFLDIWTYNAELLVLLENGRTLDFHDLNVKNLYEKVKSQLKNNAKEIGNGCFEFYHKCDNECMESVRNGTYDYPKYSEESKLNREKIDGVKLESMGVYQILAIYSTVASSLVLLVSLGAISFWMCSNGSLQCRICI

Influenza A virus [28] = experiment: Antiviral activity against Influenza A virus (A/Puerto Rico/8/1934(H1N1)) infected in MDCK cells assessed as reduction in viral nucleoprotein expression level at 2.5 ug/ml pre-treated with virus measured after 24 hrs post infection by indirect immunofluorescence assay; assay type: functional, organism-based; conditions: dose 2.5 µg/ml
Influenza A virus [29] = experiment: Antiviral activity against Influenza A virus (A/Puerto Rico/8/1934(H1N1)) infected in MDCK cells assessed as reduction in HA mRNA level at 1 ug/ml measured after 24 hrs post infection by qRT-PCR analysis; assay type: functional, organism-based; conditions: dose 1.0 µg/ml

| Structure (SMILES) | IC50 (Influenza A virus [1]) [nM] | CC50 at 1 h [2] [nM] | IC50 (Influenza A virus [3]) [nM] | selectivity ratio [4] | IC50 (Influenza A virus [5]) [nM] | IC50 (Influenza A virus [6]) [nM] | CC50 [7] [nM] | IC50 (Influenza A virus [9]) [nM] | IC50 (Influenza A virus [12]) [nM] | IC50 (Influenza B virus) [nM] | IC50 (Influenza A virus [14]) [nM] | also measured |
| --- | --- | --- | --- | --- | --- | --- | --- | --- | --- | --- | --- | --- |
| CC(C)CCC[C@@H](C)[C@H]1CC[C@H]2[C@@H]3CC=C4C[C@@H](OC(=O)CN[C@@H](CCCCN)C(=O)N[C@@H](CCCCN)C(=O)N[C@@H](Cc5c[nH]c6ccccc56)C(=O)N[C@@H](CCCCN)C(N)=O)CC[C@]4(C)[C@H]3CC[C@]12C | 1610 | 44300 | > 10000 | 30.5 | > 10000 | > 5000 | 39100 | – | – | – | – | – |
| CCOC(=O)c1c(CSc2ccccc2)n(C)c2cc(Br)c(O)c(CN(C)C)c12.Cl | 360 | 32900 | – | 91.4 | – | – | – | 1180 | 1450 | 410 | 1560 | Activity (RAW264.7 [8]): 320.5 pg/mL; Activity (RAW264.7 [10]): 294.9 pg/mL; Activity (RAW264.7 [11]): 206.5 pg/mL; Activity (RAW264.7 [13]): 400.5 pg/mL |
| NCCCC[C@H](NC(=O)Cc1ccc2ccccc2c1)C(=O)N[C@@H](CCCCN)C(=O)N[C@@H](Cc1c[nH]c2ccccc12)C(=O)N[C@@H](CCCCN)C(=O)NCCCC[C@H](NC(=O)[C@H](CCCCN)NC(=O)[C@H](Cc1c[nH]c2ccccc12)NC(=O)[C@H](CCCCN)NC(=O)[C@H](CCCCN)NC(=O)Cc1ccc2ccccc2c1)C(=O)NCCCC[C@H](NC(=O)[C@H](CCCCNC(=O)[C@H](CCCCN)NC(=O)[C@H](Cc1c[nH]c2ccccc12)NC(=O)[C@H](CCCCN)NC(=O)[C@H](CCCCN)NC(=O)Cc1ccc2ccccc2c1)NC(=O)[C@H](CCCCN)NC(=O)[C@H](Cc1c[nH]c2ccccc12)NC(=O)[C@H](CCCCN)NC(=O)[C@H](CCCCN)NC(=O)Cc1ccc2ccccc2c1)C(=O)NCC(=O)O (I: {Acetyl(2-naphthyl)}-KKWKK([Lys-Trp-Lys-Lys-Acetyl(2-naphthyl)])KG-OH / II: {Acetyl(2-naphthyl)}-KKWKK([Lys-Trp-Lys-Lys-Acetyl(2-naphthyl)]); amide I:6-II:C) | 190 | 6670 | 340 | 35.5 | 7690 | 240 | 4410 | 330 | 230 | 220 | 210 | Activity (RAW264.7 [15]): Active; Activity (RAW264.7 [16]): Active; survival at 5 mg/kg (Mus musculus [17]): 40%; Activity (RAW264.7 [18]): Active; Activity (RAW264.7 [19]): Active; Activity (Mus musculus [20]): 135.8%; Activity (RAW264.7 [21]): Active; Activity (Influenza A virus [22]): Active; Activity (RAW264.7 [23]): Active; Activity (Influenza A virus [24]): Active; Activity (RAW264.7 [25]): Active; Activity (RAW264.7 [26]): Active; Activity (Influenza A virus [27]): Active; Kd (Hemagglutinin): 0.00742 nM; Activity (Influenza A virus [28]): Active; Activity (Influenza A virus [29]): Active |
| NCCCC[C@H](NC(=O)[C@H](Cc1c[nH]c2ccccc12)NC(=O)[C@H](CCCCN)NC(=O)[C@H](CCCCN)NC(=O)Cc1ccc2ccccc2c1)C(=O)O ({Acetyl(2-naphthyl)}-KKWK-OH) | 4040 | > 200000 | – | – | – | – | 200000 | – | – | – | – | – |
